The text below walks through data of patent US10144758B2, “Deuterated bile acids” (Metselex, Inc., priority 2013, dated 2018).

For data set [1], the system named is primary rat hepatocytes. The experiment in a line: Cytotoxicity of compound alone (ApoTox-Glo Triplex / LDH Cytotoxicity Detection Kit). It is filed as cell-based. Here is the method: Primary rat hepatocytes were isolated from male rats (100-150 grams) by collagenase perfusion (as described by Solá S, et al., 2003, Journal of Biological Chemistry 278: 48831-48838)). Briefly, rats were anesthetized with phenobarbital sodium (100 mg/kg body weight) injected into the peritoneal cavity. After administration of heparin (200 units/kg body weight) in the tail vein, the animal's abdomen was opened and the portal vein exposed and cannulated. The liver was then perfused at 37° C. in situ with a calcium-free Hanks' Balanced Salt Solution (HBSS) for about 10 minutes, and then with 0.05% collagenase type IV in calcium-present HBSS for another 10 minutes. Hepatocyte suspensions were obtained by passing collagenase-digested livers through 125 μm gauze and washing cells in Complete William's E medium (William's E medium, Sigma-Aldrich Corp., St Louis, Mo., USA) supplemented with 26 mM sodium bicarbonate, 23 mM HEPES, 0.01 units/mL insulin, 2 mM L-glutamine, 10 nM dexamethasone, 100 units/mL penicillin, and 10% heat-inactivated fetal bovine serum (Invitrogen Corp., Carlsbad, Calif., USA). Viable primary rat hepatocytes were enriched by low-speed centrifugation at 200 g for 3 minutes. Cell viability was determined by trypan blue exclusion and was typically 80-85%. After isolation, hepatocytes were resuspended in Complete William's E medium and plated on Primaria™ tissue culture dishes (BD Biosciences, San Jose, Calif., USA) at 5×10^4 cells/cm^2. Cells were maintained at 37° C. in a humidified atmosphere of 5% CO2 for 6 hours to allow attachment. Plates were then washed with medium to remove dead cells and incubated in Complete William's E medium supplemented with either 100-400 μM UDCA (Sigma-Aldrich Corp.), 100-400 μM deuterated UDCA (compound 5), or no addition (control). Eight hours after pre-incubation, cells were exposed to 1 nM recombinant human TGF-β1 (R&D Systems Inc., Minneapolis, Minn., USA) for 36 hours, or to 50 or 100 μM DCA for 16 hours before processing for cell viability, cytotoxicity and apoptosis assays.
The ApoTox-Glo™ Triplex Assay (Promega Corp., Madison, Wis., USA) was used to evaluate cell viability, cytotoxicity and caspase-3/7 activity, according to the manufacturer's protocol, using a GloMax+ Multi Detection System (Promega Corp.). General cell death was also evaluated using the lactate dehydrogenase (LDH) Cytotoxicity Detection Kit^PLUS (Roche Diagnostics GmbH, Mannheim, Germany), following the manufacturer's instructions.

In data set [2] the test system is primary rat hepatocytes. The experiment in a line: DCA-induced apoptosis, nuclear fragmentation by Hoechst staining. It is filed as cell-based. The settings on record: for prevention of nuclear fragmentation: 50 μM DCA, 100 μM compound pretreatment, FIG. 7C. Here is the method: Primary rat hepatocytes were isolated from male rats (100-150 grams) by collagenase perfusion (as described by Solá S, et al., 2003, Journal of Biological Chemistry 278: 48831-48838)). Briefly, rats were anesthetized with phenobarbital sodium (100 mg/kg body weight) injected into the peritoneal cavity. After administration of heparin (200 units/kg body weight) in the tail vein, the animal's abdomen was opened and the portal vein exposed and cannulated. The liver was then perfused at 37° C. in situ with a calcium-free Hanks' Balanced Salt Solution (HBSS) for about 10 minutes, and then with 0.05% collagenase type IV in calcium-present HBSS for another 10 minutes. Hepatocyte suspensions were obtained by passing collagenase-digested livers through 125 μm gauze and washing cells in Complete William's E medium (William's E medium, Sigma-Aldrich Corp., St Louis, Mo., USA) supplemented with 26 mM sodium bicarbonate, 23 mM HEPES, 0.01 units/mL insulin, 2 mM L-glutamine, 10 nM dexamethasone, 100 units/mL penicillin, and 10% heat-inactivated fetal bovine serum (Invitrogen Corp., Carlsbad, Calif., USA). Viable primary rat hepatocytes were enriched by low-speed centrifugation at 200 g for 3 minutes. Cell viability was determined by trypan blue exclusion and was typically 80-85%. After isolation, hepatocytes were resuspended in Complete William's E medium and plated on PrimariaTM tissue culture dishes (BD Biosciences, San Jose, Calif., USA) at 5×10^4 cells/cm^2. Cells were maintained at 37° C. in a humidified atmosphere of 5% CO2 for 6 hours to allow attachment. […] Fluorescence was visualized using an Axioskop fluorescence microscope (Carl Zeiss GmbH). Blue-fluorescent nuclei were scored blindly and categorized according to the condensation and staining characteristics of chromatin. […] Five random microscopic fields per sample containing approximately 150 nuclei were counted, and mean values expressed as the percentage of apoptotic nuclei. […] Results are expressed as means±SEM of at least three experiments. *p<0.01 from control; § p<0.05 and †p<0.01 from respective DCA.

On to “7,8-[^2H]-3α,7α-dihydroxy-5β-cholan-24-oic acid/7-[^2H]-3α,7α-dihydroxy-5β-cholan-24-oic acid [Compound 5]”, for which the “cytotoxicity compared with UDCA” value in the data set with primary rat hepatocytes [1] (400 μM, 24 and 44 hours) is “comparable to UDCA cytotoxicity”. The increase in cytotoxicity in the data set with primary rat hepatocytes [1] (400 μM, 24 hours) was roughly 2%; in the data set on primary rat hepatocytes [1] (400 μM, 44 hours), roughly 15%. Besides, the signs of cytotoxicity result in the data set on primary rat hepatocytes [1] (100 and 200 μM) was “no relevant signs of cytotoxicity”. Also, the “prevention of nuclear fragmentation” value with primary rat hepatocytes [2] was roughly 65%. For the same compound, the “more effective than UDCA at reducing the percentage of apoptotic cells” value in the data set on primary rat hepatocytes [2] (DCA, Compound 5 versus UDCA) is roughly 15%.

With `C[C@H](CCC(=O)O)[C@H]1CC[C@H]2[C@@H]3[C@@H](O)C[C@@H]4C[C@H](O)CC[C@]4(C)[C@H]3CC[C@]12C` [UDCA, Ursodeoxycholic acid, reference compound], the “prevention of nuclear fragmentation” value in the data set with primary rat hepatocytes [2] is reported as roughly 50%.
